{
  "source": "paper PMC9782470",
  "about": "“Clickable C-Glycosyl Scaffold for the Development of a Dual Fluorescent and [^18F]fluorinated Cyanine-Containing Probe and Preliminary In Vitro/Vivo Evaluation by Fluorescence Imaging” (Pharmaceuticals, 2022)",
  "key": {"αvβ3 integrin": {"target": "T1, αvβ3 integrin (Homo sapiens, UniProt P05106+P06756)", "T1 construct": "purchased Bio-techne, Lille, France", "experiment": "Integrin αvβ3 solid-phase binding assay (competition with coated vitronectin)", "conditions": "coated human vitronectin 1 µg/mL, integrin αvβ3 2 µg/mL, compounds 1.6 nM–20 µM, 1 h room temperature, OD 450 nm, 3 independent series in duplicate, ± SD in Figure 2, read-out: IC50, binding of αvβ3 integrin onto vitronectin", "method": "The affinity of the compounds for integrin protein was evaluated in terms of the half maximal inhibitory concentration (IC50 values) using a solid-phase assay, as previously described by Tobias G. Kapp et al.. Briefly, the surface of Maxisorp microplates (NUNC, ThermoFicher Scientific, Paris, France) was coated with 1 µg/mL human vitronectin (Bio-techne, Lille, France) overnight at +4 °C. The non-specific sites were blocked with a TSB buffer (20 mM Tris-HCl, 150 mM NaCl, 1 mM CaCl2, 1 mM MgCl2, 1 mM MnCl2, pH 7.5, 1% BSA) (Sigma-Aldrich, Saint-Quentin-Fallavier, France) for 1 h at 37 °C. […] After 1 h incubation at room temperature, the plates were washed, and the amount of bound integrin was stained by incubation with 2 µg/mL of mouse anti-human CD51/61 (BD Pharmingen, Paris, France) and 1 µg/mL of anti-mouse IgG horseradish peroxidase conjugate antibody (Bio-techne, France). The enzymatic reaction was carried out in the dark by the addition of the enzyme substrate (Bio-techne, France) and stopped after 10 min by the addition of H2SO4 (Stop Solution, Bio-techne, France). The optical densities were measured at 450 nm. The values were blank subtracted, and the results were expressed as relative absorbance percentage in comparison to the wells containing only integrin αvβ3.\nAffinities were estimated from 3 independent series performed in duplicate as IC50 values (i.e., the concentration of the compounds that displaced 50% of integrin binding calculated using one-site fit log-IC50 non-linear analysis regression using the GraphPad Prism 6 software (v 6.05, USA)).\nFigure 2 Solid-phase binding assay."}, "U-87 MG cells": {"tested_on": "U-87 MG cells", "experiment": "Cellular uptake, quantification of Cy5 incorporation", "type": "cell-based, human", "conditions": "24 h of incubation; Cy5 fluorescence of DMSO cell lysate (λex 645, λem 680 nm), calibration curve of each compound; n = 3", "method": "Cellular uptake was evaluated using a confocal microscopy on U-87 MG spheroids after 1, 4, and 24 h of exposure with conjugates 23 and 24 and c(RGDfK)-Cy5 (25) at 1 µM. The fluorescence signal appeared to be stable over time and the distribution of the compounds was homogeneous over all cells and throughout the spheroids (Figure 3A). These three compounds were localized rapidly in the cell cytoplasm due to receptor internalization after ligand binding. As expected from photophysical properties, the fluorescence signal was higher for compound 24 compared to 23. […] The amount of compounds seemed to decrease slightly at 4 h but stayed relatively stable until 24 h and represented 25.8, 14.7, and 28.6 pmoles/10^6 cells, respectively, for compounds 23, 24 and 25. […]\nU-87 MG cells were seeded in 12 multi-well plates at 10 × 10^4 cells/cm^2 and cultivated for 48 h. […] The fluorescence signals of Cy5 in the samples were measured in duplicate at an excitation wavelength of 645/9 nm and an emission wavelength of 680/20 nm (Tecan Infinite M200 Pro spectrofluorometer, Tecan, Männedorf, Switzerland). The fluorescence signals of known concentrations of Cy5-conjugates diluted in DMSO were used to draw a standard calibration curve. The concentration of Cy5 present in the samples (nM) was determined from the linear regression analysis of the standard calibration curve (Equation (1)). […] The results of the cellular uptake were expressed as the concentration of Cy5 (nM) incorporated per one million of cells (Equation (2)). […] (nM) = f (Fluorescence Intensity)(1) [Cy5] […]\nFigure 3 Cellular uptake of fluorescent conjugates 23 and 24. […] The intrinsic fluorescence of the compounds corresponds to Cyanine 5 (red fluorescence, λex 631/28 nm, λem 692/40 nm). […] (B) Quantification of Cy5 incorporation by U-87 MG cells at 1, 4, and 24 h of incubation. The amount of each compound was calculated using the fluorescence of Cy5 extrapolated from the calibration curves of each compound and normalized to 10^6 cells. n = 3."}, "[1]": {"experiment": "Solubility in aqueous solution", "type": "physicochemical", "conditions": "result in words"}, "[2]": {"experiment": "Absorption and fluorescence measurements", "type": "physicochemical", "conditions": "for relative fluorescence quantum yield Φfluo: PBS pH 7.4, relative to commercial Cy5.Cl, λex = 640 nm, absorbance lower than 0.1; for Stokes shift Δs fluo / λem / λabs: aqueous PBS buffer 0.01 M, pH 7.4, T = 298 K; for λabs: diluted solution (µM)", "method": "Photophysical properties (absorption, excitation, emission, and relative fluorescence quantum yield) of compounds 23 and 24 were measured in an aqueous PBS buffer solution (pH = 7.4, T = 298 K) and compared to the commercially available Cy5 to detect any potential degradation that could occur during the synthesis and purification steps. […] (λabs/λem = 648/662 nm, Δs fluo = 326 cm^−1 for 23, λabs/λem = 644/658 nm, Δs fluo = 330 cm^−1 for 24).\nAbsorption spectra were recorded in diluted solution (µM) in an aqueous PBS buffer (0.01 M, pH 7.4). Fluorescence quantum yields Φfluo were measured in diluted solutions with an absorbance lower than 0.1 using the following equation: ϕfluo, x=ϕfluo,ref(Gradx/Gradref)(nx2/nref2) where Φfluo is the fluorescence quantum yield; Grad is the gradient from the plot of integrated fluorescence intensity vs. absorbance; n the refractive index of the solvent; and the subscripts x and ref denote sample and reference. The fluorescence quantum yields of 23 and 24 were measured relative to the commercial Cy5.Cl in PBS for which Φfluo,ref = 0.13 [36]. The excitation of the reference and sample compounds was performed at the same wavelength (λex = 640 nm)."}, "ectopic U-87 MG tumors": {"tested_on": "ectopic U-87 MG tumors", "type": "in vivo, female athymic nude mice", "method": "(§1) In order to evaluate the in vivo biodistribution and tumor uptake of compound 24, which has the best photophysical and solubility properties in comparison to compound 23, mice bearing ectopic or orthotopic brain tumors were imaged in NIRF using a fluorescent small animal imager. […] Animal experiments were performed in accordance with the protocols approved by the French Ministry of Research after a review by the local animal protection and use committee (APAFIS# 30902). For ectopic tumor biodistribution, a U-87 MG tumor model was established by subcutaneous injection of U-87 MG cells (2 × 10^6 in 100 µL of 5% glucose solution) into the front right flank of female athymic nude mice (Charles Rivers, Wilmington, MA, USA). The mice were subjected to imaging studies when the tumor volume reached 500 mm^3 (3–4 wk after inoculation) at 1, 4, 6, and 24 h after the intravenous administration of the compounds 24 and 25 at 0.5 nmoles in 100 µL of water for injections mixed with ethanol (20% EtOH/80% water). For brain tumor imaging, U-87 MG spheroids of approximatively 500 µm diameter were implanted in the cortex of the right hemisphere and imaged 24 h after the administration of 0.5 nmoles of the compound 24 or 25. In the same manner, major organs were harvested and subjected to small animal NIRF imaging (Fluorvivo, Indec Biosystem, Los Altos, CA, USA). A customized filter set (excitation, 510–550 nm; emission, 630–690 nm) was used for data acquisition. All fluorescence images were acquired with a 1-s exposure. The fluorescence intensity of each tissue was measured after subtraction of the background signal from an ROI of the same size and shape drawn over an area without any tissue using imageJ. Figure 4 Biodistribution of compounds 24 and 25 in tumors and organs. (A) Kinetic distribution of compounds 24 and 25 in ectopic U-87 MG tumors at 1, 4, 6, and 24 h (representative images of the whole mice with the solid arrows showing the ectopic tumors at 24 h). (B) Biodistribution of the compounds in major organs at 24 h after their administration. […] An average of ratio uptake was calculated. […]"}, "[3]": {"tested_on": "orthotopic U-87 MG brain tumor", "type": "in vivo, female athymic nude mice", "conditions": "24 h after intravenous administration of 0.5 nmoles; NIRF imaging; average of ratio uptake", "method": "as §1"}, "[4]": {"conditions": "cited from earlier work", "method": "Photophysical properties (absorption, excitation, emission, and relative fluorescence quantum yield) of compounds 23 and 24 were measured in an aqueous PBS buffer solution (pH = 7.4, T = 298 K) and compared to the commercially available Cy5 to detect any potential degradation that could occur during the synthesis and purification steps. […] (λabs/λem = 648/662 nm, Δs fluo = 326 cm^−1 for 23, λabs/λem = 644/658 nm, Δs fluo = 330 cm^−1 for 24). Conjugation of the ... || Absorption spectra were recorded in diluted solution (µM) in an aqueous PBS buffer (0.01 M, pH 7.4). Fluorescence quantum yields Φfluo were measured in diluted solutions with an absorbance lower than 0.1 using the following equation: ϕfluo, x=ϕfluo,ref(Gradx/Gradref)(nx2/nref2) where Φfluo is the fluorescence quantum yield; Grad is the gradient from the plot of integrated fluorescence intensity vs. absorbance; n the refractive index of the solvent; and the subscripts x and ref denote sample and reference. The fluorescence quantum yields of 23 and 24 were measured relative to the commercial Cy5 ..."}},
  "data": [
    {"smiles": "CN1\\C(=C/C=C/C=C/C2=[N+](CCCCCC(=O)NCCCn3cc(COCC[C@H]4O[C@H](CF)[C@@H](OCc5cn(CCCCCC(=O)NCCCC[C@@H]6NC(=O)[C@@H](Cc7ccccc7)NC(=O)[C@H](CC(=O)O)NC(=O)CNC(=O)[C@H](CCCNC(=N)N)NC6=O)nn5)[C@H]4OCc4cn(CCCCCC(=O)NCCCC[C@@H]5NC(=O)[C@@H](Cc6ccccc6)NC(=O)[C@H](CC(=O)O)NC(=O)CNC(=O)[C@H](CCCNC(=N)N)NC5=O)nn4)nn3)c3ccccc3C2(C)C)C(C)(C)c2ccccc21", "note": "[Compound 23]", "values": [
      {"measurement": "IC50", "setting": "αvβ3 integrin", "value": 10, "unit": "nM"},
      {"measurement": "amount of compound incorporated by U-87 MG cells", "setting": "U-87 MG cells", "value": 25.8, "unit": "pmoles/10^6 cells"},
      {"measurement": "solubility in aqueous solution", "setting": "[1]", "value": "poor solubility"},
      {"measurement": "relative fluorescence quantum yield Φfluo", "setting": "[2]", "value": 8, "unit": "%"},
      {"measurement": "Stokes shift Δs fluo", "setting": "[2]", "value": 326, "unit": "cm⁻¹"},
      {"measurement": "λem", "setting": "[2]", "value": 662, "unit": "nm"},
      {"measurement": "λabs", "setting": "[2]", "value": 648, "unit": "nm"}
    ]},
    {"smiles": "CN1\\C(=C/C=C/C=C/C2=[N+](CCCCCC(=O)NCCCn3cc(COCC[C@H]4O[C@H](CF)[C@@H](OCc5cn(CCOCCOCCOCCOCCC(=O)NCCCC[C@@H]6NC(=O)[C@@H](Cc7ccccc7)NC(=O)[C@H](CC(=O)O)NC(=O)CNC(=O)[C@H](CCCNC(=N)N)NC6=O)nn5)[C@H]4OCc4cn(CCOCCOCCOCCOCCC(=O)NCCCC[C@@H]5NC(=O)[C@@H](Cc6ccccc6)NC(=O)[C@H](CC(=O)O)NC(=O)CNC(=O)[C@H](CCCNC(=N)N)NC5=O)nn4)nn3)c3ccccc3C2(C)C)C(C)(C)c2ccccc21", "note": "[Compound 24]", "values": [
      {"measurement": "ratio of fluorescence uptake, ectopic tumor to healthy brain", "setting": "ectopic U-87 MG tumors; 24 h after intravenous administration of 0.5 nmoles, NIRF imaging, average of ratio uptake", "value": 100, "unit": "fold"},
      {"measurement": "route of elimination", "setting": "ectopic U-87 MG tumors; mouse, in vivo", "value": "urinary tract and liver metabolism"},
      {"measurement": "ratio of fluorescence uptake, orthotopic brain tumor to healthy brain", "setting": "[3]", "value": 40, "unit": "fold"},
      {"measurement": "IC50", "setting": "αvβ3 integrin", "value": 16, "unit": "nM"},
      {"measurement": "amount of compound incorporated by U-87 MG cells", "setting": "U-87 MG cells", "value": 14.7, "unit": "pmoles/10^6 cells"},
      {"measurement": "relative fluorescence quantum yield Φfluo", "setting": "[2]", "value": 14, "unit": "%"},
      {"measurement": "Stokes shift Δs fluo", "setting": "[2]", "value": 330, "unit": "cm⁻¹"},
      {"measurement": "λem", "setting": "[2]", "value": 658, "unit": "nm"},
      {"measurement": "λabs", "setting": "[2]", "value": 644, "unit": "nm"}
    ]},
    {"smiles": "CN1C(=CC=CC=CC2=[N+](CCCCCC(=O)NCCCC[C@@H]3NC(=O)[C@@H](Cc4ccccc4)NC(=O)[C@H](CC(=O)O)NC(=O)CNC(=O)[C@H](CCCNC(=N)N)NC3=O)c3ccccc3C2(C)C)C(C)(C)c2ccccc21", "note": "[Compound 25]", "values": [
      {"measurement": "IC50", "setting": "αvβ3 integrin", "value": 8540, "unit": "nM"},
      {"measurement": "amount of compound incorporated by U-87 MG cells", "setting": "U-87 MG cells", "value": 28.6, "unit": "pmoles/10^6 cells"}
    ]},
    {"smiles": "CN1/C(=C/C=C/C=C/C2=[N+](CCCCCC(=O)O)c3ccccc3C2(C)C)C(C)(C)c2ccccc21", "note": "[Cy5]", "values": [
      {"measurement": "fluorescence quantum yield Φfluo of the reference", "setting": "[4]; PBS", "value": 13, "unit": "%"},
      {"measurement": "fluorescence quantum yield Φfluo,ref", "setting": "[4]; in PBS, as fraction", "value": 0.13}
    ]}
  ]
}
